Data taken from a melting point compilation (Tetko et al.; mined from patent text by program, amines drawn as free bases though some values may be those of a salt).

Row | melting point | SMILES
1 | 178 to 183 °C | CCOC(=O)C(=O)Nc1c([N+](=O)[O-])sc2ccc([N+](=O)[O-])cc12
2 | 54 °C | CCCCCCCCCCCCc1ccc(NC)c([N+](=O)[O-])c1
3 | 74 to 78 °C | CCNC(=O)ON=C(C)C1=CCCN(C)C1
4 | 220 °C | O=C(NC(Cc1ccc(OCc2ccoc2)cc1)C(=O)O)c1cn2nc(-c3ccc(Cl)cc3)ccc2n1 (stereo not given)
5 | 164 to 166 °C | COc1ccc(C2=NN(C3CCN(S(C)(=O)=O)CC3)C(=O)CC2)cc1OC
6 | 126 to 127 °C | Cn1c(=O)n(CCO)n(CCO)c1=O
7 | 171 °C | O=C(O)c1nc(-c2ccccc2Cl)nc2ccccc12
8 | 45 to 48 °C | O=C1N(CCc2noc(C(F)(F)F)n2)c2ccccc2C12COc1cc3c(cc12)OCO3 (stereo not given)
9 | 150 °C | Cc1cccc(-c2sc(N)nc2-c2ccnc(-c3ccc(OCCN4CCCC4)cc3)c2)n1
10 | 79 to 81 °C | Cc1cc(-c2noc(C(F)(F)F)n2)cc(C)c1OCCCc1ccc(CCl)nc1
11 | 228 to 230 °C | COc1cc(CNC(=O)c2nc3cnn(CCOc4ccc(C(=O)O)cc4)c3c(=O)[nH]2)ccc1F
12 | 160 to 162 °C | C[C@H]1CC[C@H]2C(C)(C)[C@H](OS(=O)(=O)c3ccccc3)CC[C@]23Oc2c(c(O)cc4c2CNC4=O)C[C@]13C
13 | 105 °C | COc1cc(CC(=O)NCCCc2ccc(C)c(C)c2)ccc1OCCBr
14 | 150 to 155 °C | NC(=O)n1ccc(-c2ccc(Sc3ccc(F)cc3)cc2)n1
15 | 150 to 151 °C | Cc1ccc(Cn2ccc(OCc3ccccc3)c(Br)c2=O)cc1
16 | 94 to 97 °C | CC=C1CCC2C3=CC=C4CC(O[Si](C)(C)C(C)(C)C(C)C)CCC4(C)C3CCC12C (stereo not given)
17 | 43 to 44 °C | CC(C)[C@H]1CC[C@H](C(=O)CO)CC1
18 | 246 °C | Cc1ccncc1-n1nc(C)c(CC(=O)O)c1-c1ccccc1
19 | 99.5 to 102 °C | CN(C)C(=O)C(C)(C)n1ccc(-c2ccccc2)n1
20 | 106 to 107 °C | Fc1ccc(CNc2nc(Nc3cccc(C(F)(F)F)c3)nc(C(F)(F)F)n2)cc1
21 | 67 to 77 °C | CC(C)CCC1CCCCc2c1oc(=O)c(C(c1ccccc1)C1CC1)c2O (stereo not given)
22 | 100 to 104 °C | Cc1nc(-c2cnccn2)no1
23 | 117 to 118 °C | CCOC(=O)c1cn2c(cc(OC(C)C)c3ccc(OC)cc32)n1

Row | melting point | SMILES
24 | 195 to 197 °C | Fc1cc(F)cc(Cc2cccnc2S)c1
25 | 119 to 120 °C | O=P1(c2ccc(F)cc2)c2ccccc2CN1c1ccccc1 (stereo not given)
26 | 143 to 144 °C | S=C(NC(=Nc1ccccc1)c1ccccc1)Nc1ccccc1
27 | 207 °C | OC1CSC(Oc2cccc(-c3ccnc(Cl)c3)c2)C(O)C1O (stereo not given)
28 | 92 to 95 °C | Cc1ccccc1Cn1c(=O)c2c(N3CCN(C)CC3)cc(Cl)cc2n(Cc2ccccc2)c1=O
29 | 86 to 88 °C | CSc1cc2c(cc1C(F)(F)F)N(C(=O)Nc1ccc(Oc3ccccc3)nc1)CC2
30 | 44 to 47 °C | O=Cc1ccc(OS(=O)(=O)C(F)(F)F)c2ccccc12
31 | 157 to 159 °C | Cc1ccccc1NC1=CCC(C)n2c1ncc(C(=O)O)c2=O (stereo not given)
32 | 132 to 134 °C | CCCC12CCC(=O)C=C1c1c(cc(OC)c(Cl)c1Cl)C2Br (stereo not given)
33 | 257 °C | Cc1nnc(N2C(=O)C(O)=C(C(=O)c3ccc(C(C)C)cc3)C2c2ccc(C(F)(F)F)cc2)s1 (stereo not given)
34 | 131 to 132 °C | CC12CC3CC(C)(C1)CC(C(=O)NCCc1cccs1)(C3)C2
35 | 190 to 192 °C | CC(=O)OC1CCC2C3C(Sc4ccc(Br)cc4)C(=O)c4cc(O)ccc4C3CCC12C (stereo not given)
36 | 160 to 162 °C | COc1ccc(NC(=S)Nc2ccc(NNC=O)c(OC)c2)cc1
37 | 136 to 138 °C | CN(Cc1cc(C(F)(F)F)cc(C(F)(F)F)c1)C(=O)c1c(-c2ccc(F)cc2)c2cnccc2c(=O)n1C
38 | 174 to 175 °C | NC(=O)c1ccc(NC2CCCN(Cc3ccccc3)CC2)c(Cl)c1 (stereo not given)
39 | 217 to 219 °C | COc1ccc(Cl)cc1-c1c(NCn2nnc3ccccc32)c(=O)[nH]c2ccc(C(F)(F)F)cc12
40 | 143 to 144 °C | CCOC(=O)Cc1ccc(Nc2ccnc(Nc3cc(OC)c(OC)c(OC)c3)n2)cc1
41 | 28 °C | CCCCOC(Cl)C(=O)NCC1OC(C)C(C)O1 (stereo not given)
42 | 74 to 75 °C | COc1nc(C)cnc1NS(=O)(=O)c1cccnc1-c1ccc(C(C)C)cc1
43 | 206 to 208 °C | COc1ccc(-c2nc(C(=O)NCCO)c[nH]2)cc1OC1CCCC1
44 | 105 to 108 °C | COc1ccc(C=C=C(C)C(=O)O)cc1
45 | 137 to 139 °C | O=C(O)C(O)c1ccccc1[N+](=O)[O-] (stereo not given)
46 | 124 to 126 °C | Oc1cccc([C@H]2CCCC[C@H]2N2CCCC2)c1 (relative stereo)

Row | melting point | SMILES
47 | 98.8 °C | CCCCCc1ccc(-c2ccc(C3CCC(=O)O3)cc2)cc1 (single isomer, unassigned)
48 | 182 °C | O=c1c([N+](=O)[O-])c(O)c2cccnc2n1Cc1ccccc1
49 | 161 to 162 °C | Cc1sccc1-c1nc2c3ccsc3ccn2c1N
50 | 55 °C | CCOC(=O)CN(Cc1cccnc1)c1ccc(C(O)(C(F)(F)F)C(F)(F)F)cc1
51 | 161 to 163 °C | CCOC(=O)n1nc(-c2cc(C(C)(C)C)c(O)c(C(C)(C)C)c2)c2cccnc21
52 | 117 to 120 °C | CN1C(=O)C(C(=N)c2ccccc2)=C(O)CC1c1ccccc1 (stereo not given)
53 | 159 °C | O=C(Nc1ccccc1)O[C@H]1CSC(c2ccccc2)=N[C@@H]1c1ccccc1 (racemic)
54 | 134 °C | Nc1c(SC(F)(F)F)ncn1-c1c(Cl)cc(C(F)(F)F)cc1Cl
55 | 66 to 68 °C | CCCCCCCCCC(O)CCc1ccc(O)c(OC)c1 (stereo not given)
56 | 182 to 183 °C | CC(CC(=O)c1ccccc1)C(=O)N1CSCC1C(=O)O (stereo not given)
57 | 181 to 183 °C | COC(=O)C1=C(C)Nc2c(c(-c3ccccc3)nn2C)C1c1ccc(F)cc1 (stereo not given)
58 | 88 to 89 °C | CC(=O)Oc1cc(OCC(OC(C)=O)c2ccc3c(c2)C(C)(C)CCC3(C)C)ccc1C(=O)O (stereo not given)
59 | 102 °C | CNn1c(C)nn(C(=O)NC(C)(C)CCc2ccccc2)c1=O
60 | 133 to 135 °C | CCCCc1nc2c(N)nc3ccccc3c2n1CCOCc1ccccc1
61 | 134 to 135 °C | Cc1oc(-c2ccc3ccccc3c2)nc1COc1ccc(CCCCn2cncn2)cc1
62 | 186 to 188 °C | CCN1CC(C#CC2CC2)(C(F)(F)F)c2cc(Cl)ccc2NC1=O (stereo not given)
63 | 178 to 181 °C | CC(=O)OCN1C(=O)CN(CCN2CC(=O)N(COC(C)=O)C(=O)C2)CC1=O
64 | 99 to 100 °C | CCCCCCCCCCC(O)C(O)CCC(O)C1CCC(=O)O1 (stereo not given)
65 | 124 to 125 °C | CCc1noc(-c2cn(-c3cccc(OCCc4ccccc4)c3)cn2)n1
66 | 167 to 169 °C | O=P1(C2CCCCC2)c2ccccc2CN1c1ccccc1 (stereo not given)
67 | 185 to 187 °C | O=C(O)c1cc(S(=O)(=O)N2CCC(CO)CC2)ccc1Cl

Row | SMILES | melting point
68 | CC1(C)CCC(C)(C)c2cc(-c3ccccc3C=O)ccc21 | 85 to 87 °C
69 | CN1C(=O)C(C(=O)Nc2ccc(Oc3ccc(C(F)(F)F)cn3)cc2)C(=O)N(C)C1=O | 180 to 181 °C
70 | COc1cc(Cc2cnc(N)nc2N)cc(OC)c1C(C)(C)O | 183 to 185 °C
